Assay type: physicochemical
Description: The solvent will be used in proportion with the concentration of the compound I and its solubility in this solvent. […] It will be sought to have the lowest possible volume. The vehicle makes up the difference to 100%.

Compound: N#Cc1nn(-c2c(Cl)cc(C(F)(F)F)cc2Cl)c(N)c1[S+]([O-])C(F)(F)F (stereo not shown) [fipronil, 1-[2,6—Cl2-4—CF3 phenyl]-3—CN-4-[SO-CF3]-5—NH2 pyrazole]
- Solubility: 4.3 % m/V

Source: patent US20070293446A1, “Compositions comprising C-13 alkoxyether macrolide compounds and phenylpyrazole compounds” (priority 1996, published 2007)
